Laboratory results published in patent US20130217085A1, “METHODS FOR IMPROVING FERMENTATION YIELD OF POLYUNSATURATED FATTY ACIDS” (NANJING UNIVERSITY OF TECHNOLOGY, priority 2010, published 2013).

System: Schizochytrium limacinum HX-308
Assay: Shake-flask fermentation of Schizochytrium limacinum HX-308 with exogenous compatible solute added to the fermentation medium (fatty acid composition, DHA yield, biomass)
Assay type: cell-based
Text: The detection method of the following Examples is the same as that in the application titled “Schizochytrium limacinum and method of production of DHA oil using the same” (Application No. 200910033869.5) The strain is Schizochytrium limacinum HX-308 with deposit number CCTCC No. M209059. Seed medium: D-glucose 40 g/L, yeast extract 2 g/L, sodium glutamate 10 g/L, MgCl2 3 g/L, CaCl2·2H2O 1 g/L, KH2PO4 4 g/L, KCl 2 g/L, NaCl 15 g/L, MgSO4·7H2O 5 g/L, FeCl3 0.1 g/L. (See “A Schizochytrium limacinum and method of production of DHA oil using the same” (Application No. 200910033869.5)). Fermentation medium: D-glucose 40 g/L, yeast extract 2 g/L, sodium glutamate 10 g/L, MgCl2 3 g/L, (NH4)2SO4 6 g/L, KH2PO4 4 g/L, KCl 2 g/L, NaCl 15 g/L, MgSO4·7H2O 5 g/L, FeCl3 0.1 g/L. (See “A Schizochytrium limacinum and method of production of DHA oil using the same” (Application No. 200910033869.5)). Cultural method: strain was inoculated into seed medium with inoculation amount of 5% (v/v), cultured in a 500 mL shake flask for 24 h to log phase under 170 r at 25° C., and inoculated into the fermentation medium with addition of a certain amount of glycine betaine (such as 10 mmol/L, 40 mmol/L, 70 mmol/L, 100 mmol/L) in inoculation amount of 9% (v/v) for culturing; fermentation ceased when glucose reached an amount of 0 g/L. The results are shown in Table 1. The strain is Schizochytrium limacinum HX-308 with deposit number CCTCC No. M209059. Seed medium: D-glucose 40 g/L, yeast extract 2 g/L, sodium glutamate 10 g/L, MgCl2 3 g/L, CaCl2·2H2O 1 g/L, KH2PO4 4 g/L, KCl 2 g/L, NaCl 15 g/L, MgSO4·7H2O 5 g/L, FeCl3 0.1 g/L. Fermentation medium: D-glucose 40 g/L, yeast extract 2 g/L, sodium glutamate 10 g/L, MgCl2 3 g/L, (NH4)2SO4 6 g/L, KH2PO4 4 g/L, KCl 2 g/L, NaCl 15 g/L, MgSO4·7H2O 5 g/L, FeCl3 0.1 g/L. Cultural method: the strain was inoculated into seed medium with inoculation amount of 5% (v/v), cultured in a 500 mL shake flask for 24 h to log phase under 170 r at 25° C., and inoculated into the fermentation medium with addition of a certain amount of trehalose (such as 10 mmol/L, 40 mmol/L, 80 mmol/L) in inoculation amount of 9% (v/v); fermentation ceased when glucose reached an amount of 0 g/L. The results are shown in Table 2.

[1] = exogenous glycine betaine 10 mM
[2] = exogenous glycine betaine 40 mM
[3] = exogenous glycine betaine 70 mM
[4] = exogenous glycine betaine 100 mM
[5] = exogenous glycine betaine 200 mM

Compound: C[N+](C)(C)CC(=O)[O-] [glycine betaine]
- mass percentage of squalene (after treatment with exogenous glycine betaine, concentration not given, increased from 0.8%): 1.7%
- DHA yield (after treatment with exogenous glycine betaine, concentration not given, increased from 3.9 g/L): 5.0 g/L
- Total fatty acid yield (after treatment with exogenous glycine betaine, concentration not given, increased from 8.8 g/L): 10 g/L
- mass percentage of DPA in total fatty acids (after treatment with exogenous glycine betaine, concentration not given, increased from 11.9%): 16.2%
- mass percentage of DHA in total fatty acids (after treatment with exogenous glycine betaine, concentration not given, increased from 44.1%): 49.8%
- ratio of DHA in the total biomass (after treatment with exogenous glycine betaine, concentration not given, increased from 57): 72 mg/g
- mass percentage of saturated fatty acid C14: 0 in total fatty acid (after treatment with exogenous glycine betaine, concentration not given, reduced from 10.0%): 5.1%
- mass percentage of saturated fatty acid C16: 0 in total fatty acid (after treatment with exogenous glycine betaine, concentration not given, reduced from 24.4%): 20%
- increase of DHA yield (after treatment with exogenous glycine betaine, versus no addition): 28%
- ARA (% total fatty acids) [1]: 0.5 % total fatty acids
- Biomass [1]: 69 g/L
- C14:0 (% total fatty acids) [1]: 7.1 % total fatty acids
- C16:0 (% total fatty acids) [1]: 21.5 % total fatty acids
- DHA (% total fatty acids) [1]: 47.8 % total fatty acids
- DHA (mg/g biomass) [1]: 60.5 mg/g biomass
- DHA yield [1]: 4.2 g/L
- DPA (% total fatty acids) [1]: 14.5 % total fatty acids
- EPA (% total fatty acids) [1]: 1.2 % total fatty acids
- Others (% total fatty acids) [1]: 6.2 % total fatty acids
- Squalene (% total fatty acids) [1]: 1.2 % total fatty acids
- Total fatty acid yield [1]: 8.8 g/L
- ARA (% total fatty acids) [2]: 0.6 % total fatty acids
- Biomass [2]: 69 g/L
- C14:0 (% total fatty acids) [2]: 5.1 % total fatty acids
- C16:0 (% total fatty acids) [2]: 19.9 % total fatty acids
- DHA (% total fatty acids) [2]: 49.8 % total fatty acids
- DHA (mg/g biomass) [2]: 72.2 mg/g biomass
- DHA yield [2]: 5 g/L
- DPA (% total fatty acids) [2]: 16.2 % total fatty acids
- EPA (% total fatty acids) [2]: 1.6 % total fatty acids
- Others (% total fatty acids) [2]: 5.1 % total fatty acids
- Squalene (% total fatty acids) [2]: 1.7 % total fatty acids
- Total fatty acid yield [2]: 10 g/L
- ARA (% total fatty acids) [3]: 0.8 % total fatty acids
- Biomass [3]: 70 g/L
- C14:0 (% total fatty acids) [3]: 5.1 % total fatty acids
- C16:0 (% total fatty acids) [3]: 19.5 % total fatty acids
- DHA (% total fatty acids) [3]: 49.0 % total fatty acids
- DHA (mg/g biomass) [3]: 67.1 mg/g biomass
- DHA yield [3]: 4.7 g/L
- DPA (% total fatty acids) [3]: 16.0 % total fatty acids
- EPA (% total fatty acids) [3]: 2.0 % total fatty acids
- Others (% total fatty acids) [3]: 5.6 % total fatty acids
- Squalene (% total fatty acids) [3]: 2.0 % total fatty acids
- Total fatty acid yield [3]: 9.6 g/L
- ARA (% total fatty acids) [4]: 0.9 % total fatty acids
- Biomass [4]: 70 g/L
- C14:0 (% total fatty acids) [4]: 5.2 % total fatty acids
- C16:0 (% total fatty acids) [4]: 19.0 % total fatty acids
- DHA (% total fatty acids) [4]: 48.1 % total fatty acids
- DHA (mg/g biomass) [4]: 61.14 mg/g biomass
- DHA yield [4]: 4.3 g/L
- DPA (% total fatty acids) [4]: 15.8 % total fatty acids
- EPA (% total fatty acids) [4]: 2.6 % total fatty acids
- Others (% total fatty acids) [4]: 6.1 % total fatty acids
- Squalene (% total fatty acids) [4]: 2.3 % total fatty acids
- Total fatty acid yield [4]: 8.9 g/L
- Biomass [5]: 85 g/L
- C14:0 (% total fatty acids) [5]: 2.3 % total fatty acids
- C16:0 (% total fatty acids) [5]: 10.9 % total fatty acids
- DHA (% total fatty acids) [5]: 34.9 % total fatty acids
- DHA (mg/g biomass) [5]: 27 mg/g biomass
- DHA yield [5]: 2.3 g/L
- DPA (% total fatty acids) [5]: 10.5 % total fatty acids
- EPA (% total fatty acids) [5]: 8.6 % total fatty acids
- Others (% total fatty acids) [5]: 30.9 % total fatty acids
- Squalene (% total fatty acids) [5]: 1.9 % total fatty acids
- Total fatty acid yield [5]: 6.6 g/L
